Data: US8293462B2, “Method of preserving early mammalian embryos by vitrification” (Central Institute for Experimental Animals, priority 2005, dated 2012)

Tested on: marmoset ES cells, cell line No. 40
Experiment: Survival of ES cell clumps after thaw, cell line No. 40
Type: cell-based, common marmoset (Callithrix jacchus)
Details: FIG. 1
Text: As marmoset ES cells, two cell lines, i.e., No. 40 and No. 20, which were established by the Central Institute for Experimental Animals (Japan), were employed (Sasaki E. et al., 2005, Establishment of Novel Embryonic Stem Cell Lines Derived from the Common Marmoset (Callithrix jacchus), Stem Cells. (in press)). The cell clumps separated via trypsin treatment were recovered with an egg-sampling pipette and used in the preservation experiment.
In the method of preservation by vitrification according to the present invention, […] PB1, 10% propylene glycol, 30% ethylene glycol, 20% Percoll®(t, and 0.3 M sucrose were used. In thaw, the SPB1 solution comprising PB1 and 0.3 M sucrose was used.
In preservation of the control embryos by vitrification (Fujioka T. et al., Int. J. Dev. Biol. 48: 1149-1154), a DAP213 solution comprising PB1, 2 mol of DMSO, 1 mol of acetamide, and 3 mol of propylene glycol was used. In slow freezing (Reubinoff B. E. et al., Human Reprod. Vol. 16, No. 10, 2187-2194), the SF solution comprising 10% DMSO in FCS was used.
Subsequently, the cell clumps were introduced into a preservation tube (Nunc 375353) with 5 μl of P10, followed by cooling at 0° C. for 1 minute. Thereafter, 95 μl of PEPeS, which had been cooled to 0° C., was introduced into the tube. […]

CC(O)CO (centres unmarked) [propylene glycol]
survival rate after thaw compared with control that had not been preserved (pretreatment solution PB1 + 5% propylene glycol, 4 days after initiation of culture): significantly lower
survival rate after thaw compared with control that had not been preserved (pretreatment solution PB1 + 15% propylene glycol, 4 days of culture): did not differ from the control embryos
